Source: patent US20240041042A1, “1-(PYRIDYL)-5-AZINYLPYRAZOLE DERIVATIVES, AND THEIR USE FOR CONTROL OF UNDESIRED PLANT GROWTH” (Bayer Aktiengesellschaft, priority 2020, published 2024)

Legend:
Format in all cases: in vivo
[1] = tested on: Pharbitis purpurea (PHBPU); test: Pre-emergence herbicidal action against PHBPU
Procedure, shortened: (§1)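 Application rates ran to 320 g/ha or lower, with several dosages tested on the same weeds. The compound, as wettable powder or emulsion concentrate, is sprayed pre-emergence onto soil over sown seeds; greenhouse growth follows, and effect is rated visually after roughly 3 weeks.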

[2] = tested on: Echinochloa crus-galli (ECHCG); test: Pre-emergence herbicidal action against ECHCG
Procedure, shortened: as §1

Viola tricolor (VIOTR) [3] = test: Pre-emergence herbicidal action against VIOTR
Procedure, shortened: as §1

[4] = tested on: Polygonum convolvulus (POLCO); test: Pre-emergence herbicidal action against POLCO
Procedure, shortened: as §1

[5] = tested on: Pharbitis purpurea (PHBPU); test: Post-emergence herbicidal action against PHBPU
Procedure, shortened: (§2)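 Values are percent visual activity (0% like control, 100% plants dead) after about 3 weeks in the greenhouse. Treatment: post-emergence spray at one-leaf stage, 600 l/ha spray volume, 0.5% additive, doses 320 g/ha or lower.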

[6] = tested on: Digitaria sanguinalis (DIGSA); test: Post-emergence herbicidal action against DIGSA; settings: visual rating about 3 weeks after treatment
Procedure, shortened: as §2

Setaria viridis (SETVI) [7] = test: Post-emergence herbicidal action against SETVI
Procedure, shortened: as §2

Lolium rigidum (LOLRI) [8] = test: Pre-emergence herbicidal action against LOLRI
Procedure, shortened: as §1

Viola tricolor (VIOTR) [9] = test: Post-emergence herbicidal action against VIOTR
Procedure, shortened: as §2

[10] = tested on: Alopecurus myosuroides (ALOMY); test: Pre-emergence herbicidal action against ALOMY; settings: scored visually after about 3 weeks, 100% = plants have died
Procedure, shortened: as §1

[11] = tested on: Verconica persica (VERPE); test: Pre-emergence herbicidal action against VERPE; settings: dosage 320 g/ha
Procedure, shortened: as §1

Lolium rigidum (LOLRI) [12] = test: Post-emergence herbicidal action against LOLRI; settings: dosage 320 g/ha
Procedure, shortened: as §2

[13] = tested on: Alopecurus myosuroides (ALOMY); test: Post-emergence herbicidal action against ALOMY; settings: visual rating about 3 weeks after treatment vs untreated controls (100% = plants have died, 0% = like control plants)
Procedure, shortened: as §2

Setaria viridis (SETVI) [14] = test: Pre-emergence herbicidal action against SETVI
Procedure, shortened: as §1

[15] = tested on: Matricaria inodora (MATIN); test: Pre-emergence herbicidal action against MATIN
Procedure, shortened: as §1

[16] = tested on: Echinochloa crus-galli (ECHCG); test: Post-emergence herbicidal action against ECHCG
Procedure, shortened: as §2

[17] = tested on: Digitaria sanguinalis (DIGSA); test: Pre-emergence herbicidal action against DIGSA
From the text: (§3) Seeds of monocotyledonous and dicotyledonous weed plants and crop plants are placed in plastic or organic planting pots and covered with soil. The compounds of the invention, formulated in the form of wettable powders (WP) or as emulsion concentrates (EC), are then applied to the surface of the covering soil as aqueous suspension or emulsion with addition of 0.5% additive at a water application rate equivalent to 600 l/ha. After the treatment, the pots are placed in a greenhouse and kept under good growth conditions for the trial plants. After about 3 weeks, the effect of the preparations is scored visually in comparison with untreated controls as percentages. For example, 100% activity=the plants have died, 0% activity=like control plants.
Tables A1 to A13 below show the effects of selected compounds of the general formula (I) on various harmful plants and at an application rate corresponding to 320 g/ha or lower, which were obtained by the experimental procedure mentioned above. The appendices “a”, “b” and “c” give differentiation by dosage used with otherwise the same harmful plants tested.

[18] = tested on: Amaranthus retroflexus (AMARE); test: Pre-emergence herbicidal action against AMARE; settings: visual scoring after about 3 weeks vs untreated controls
Procedure, shortened: as §1

[19] = tested on: Polygonum convolvulus (POLCO); test: Post-emergence herbicidal action against POLCO; settings: dosage 320 g/ha
Procedure, shortened: as §2

[20] = tested on: Matricaria inodora (MATIN); test: Post-emergence herbicidal action against MATIN
Procedure, shortened: as §2

Avena fatua (AVEFA) [21] = test: Post-emergence herbicidal action against AVEFA; settings: visual rating about 3 weeks after treatment
Procedure, shortened: as §2

[22] = tested on: Verconica persica (VERPE); test: Post-emergence herbicidal action against VERPE
Procedure, shortened: as §2

[23] = tested on: Amaranthus retroflexus (AMARE); test: Post-emergence herbicidal action against AMARE
Procedure, shortened: as §2

Zea mays (ZEAMX) [24] = settings: pre-emergence, 80 g/ha, crop plant compatibility, in comparison to untreated controls
From the text: as §3
The observed effects on selected crop plants are reported here in comparison to the untreated controls (values in %). The appendices “a” “b” and “c” give differentiation by dosage used with otherwise the same crop plants tested.

[25] = tested on: Triticum aestivum (TRZAS); settings: crop plant compatibility, 80 g/ha, effect vs untreated controls
Procedure, shortened: (§4)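 Test crops were treated 2 to 3 weeks after sowing, once they reached one leaf, by spraying compound in water with 0.5% additive at 600 l/ha. Visual scoring compared them with untreated controls roughly 3 weeks on, and appendices a, b and c denote different doses.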

Zea mays (ZEAMX) [26] = settings: for Post-emergence action against ZEAMX in %: crop plant compatibility, 80 g/ha, effect vs untreated controls
Procedure, shortened: as §4

Avena fatua (AVEFA) [27] = test: Pre-emergence herbicidal action against AVEFA; settings: 320 g/ha, visual scoring after about 3 weeks vs untreated controls
Procedure, shortened: as §1

Oryza sativa (ORYSA) = settings: crop plant compatibility, 20 g/ha, effect vs untreated controls
Procedure, shortened: as §4

[28] = 80 g/ha, visual scoring after about 3 weeks vs untreated controls
[29] = 80 g/ha, visual rating about 3 weeks after treatment vs untreated controls (100% = plants have died, 0% = like control plants)

| SMILES | Pre-emergence action against ECHCG in % ([2]; dosage 320 g/ha) | Pre-emergence action against VIOTR in % (Viola tricolor (VIOTR) [3]; 320 g/ha, Viola tricolor) | Pre-emergence action against VIOTR in % (Viola tricolor (VIOTR) [3]; dosage 80 g/ha) | Pre-emergence action against POLCO in % ([4]; dosage 320 g/ha) | Post-emergence action against PHBPU in % ([5]; dosage 80 g/ha) | Post-emergence action against PHBPU in % ([5]; dosage 320 g/ha) | Post-emergence action against SETVI in % (Setaria viridis (SETVI) [7]; dosage 80 g/ha) | Post-emergence action against SETVI in % (Setaria viridis (SETVI) [7]; dosage 320 g/ha) | Pre-emergence action against LOLRI in % (Lolium rigidum (LOLRI) [8]; dosage 320 g/ha) | Post-emergence action against VIOTR in % (Viola tricolor (VIOTR) [9]; 320 g/ha) | Pre-emergence action against ALOMY ([10]; 320 g/ha) | Pre-emergence action against VERPE in % [11] | Post-emergence action against LOLRI in % (Lolium rigidum (LOLRI) [12]) | Post-emergence action against ALOMY in % ([13]; 320 g/ha) | Pre-emergence action against SETVI in % (Setaria viridis (SETVI) [14]; dosage 80 g/ha) | Pre-emergence action against SETVI in % (Setaria viridis (SETVI) [14]; dosage 320 g/ha) | Pre-emergence action against MATIN in % ([15]; dosage 80 g/ha) | Pre-emergence action against MATIN in % ([15]; dosage 320 g/ha) | Post-emergence action against ECHCG in % ([16]; dosage 320 g/ha) | Pre-emergence action against AMARE in % ([18]; 320 g/ha) | other results |
| --- | --- | --- | --- | --- | --- | --- | --- | --- | --- | --- | --- | --- | --- | --- | --- | --- | --- | --- | --- | --- | --- |
| CCOC(=O)COc1nn(-c2nc(F)ccc2F)c(-c2cncc(F)c2)c1Cl [Example I-163] | 90% | 100% | 90% | 80% | 80% | 90% | 80% | 90% | 90% | 80% | 90% | 80% | 80% | 80% | 80% | 100% | 90% | 90% | 80% | 90% | Pre-emergence action against PHBPU in % ([1]; dosage 80 g/ha): 90%; Pre-emergence action against PHBPU in % ([1]; dosage 320 g/ha): 90%; Pre-emergence action against ECHCG in % ([2]; dosage 80 g/ha): 80%; Pre-emergence action against POLCO in % ([4]; dosage 80 g/ha): 80%; Post-emergence action against DIGSA in % ([6]; 320 g/ha): 80%; Post-emergence action against ECHCG in % ([16]; dosage 80 g/ha): 80%; Pre-emergence action against DIGSA in % [17, 28]: 90%; Pre-emergence action against DIGSA in % ([17]; dosage 320 g/ha): 100% |
| CCOC(=O)COc1nn(-c2ncccc2F)c(-c2ccc(F)nc2)c1F [Example I-354] | 100% | – | – | 80% | – | 90% | 80% | 80% | – | 80% | 80% | – | 90% | 90% | – | 90% | – | 90% | 100% | 90% | Post-emergence action against POLCO in % [19]: 80%; Post-emergence action against MATIN in % ([20]; dosage 80 g/ha): 80%; Post-emergence action against MATIN in % ([20]; dosage 320 g/ha): 80%; Post-emergence action against AVEFA in % (Avena fatua (AVEFA) [21]; 320 g/ha): 80%; Post-emergence action against VERPE in % ([22]; 320 g/ha, VERPE): 90%; Post-emergence action against AMARE in % [23, 29]: 80%; Post-emergence action against AMARE in % ([23]; 320 g/ha, visual rating about 3 weeks after treatment): 80%; Pre-emergence action against ZEAMX in % (Zea mays (ZEAMX) [24]): 0%; Post-emergence action against VIOTR in % (Viola tricolor (VIOTR) [9]; 80 g/ha): 80%; Post-emergence action against TRZAS in % [25]: 0%; Post-emergence action against ZEAMX in % (Zea mays (ZEAMX) [26]): 0%; Pre-emergence action against AMARE in % ([18]; 80 g/ha): 80% |
| O=C(COc1nn(-c2ncccc2F)c(-c2ccc(F)nc2)c1Br)OCc1ccccn1 [Example I-46] | 90% | 100% | 90% | 80% | 80% | – | – | – | 100% | – | 100% | 100% | – | – | 90% | 100% | 90% | 90% | – | 100% | Pre-emergence action against AVEFA in % (Avena fatua (AVEFA) [27]): 90%; Post-emergence action against AVEFA in % (Avena fatua (AVEFA) [21]; 80 g/ha): 80%; Post-emergence action against DIGSA in % ([6]; 80 g/ha): 90%; Post-emergence action against VERPE in % ([22]; dosage 80 g/ha): 80%; Pre-emergence action against LOLRI in % (Lolium rigidum (LOLRI) [8]; dosage 80 g/ha): 90%; Post-emergence action against AMARE in % [23, 29]: 90%; Pre-emergence action against ALOMY ([10]; 80 g/ha): 90%; Post-emergence action against ALOMY in % ([13]; 80 g/ha): 90%; Post-emergence action against ORYSA in % (Oryza sativa (ORYSA)): 10%; Post-emergence action against ZEAMX in % (crop plant compatibility) (Zea mays (ZEAMX) [26]; 20 g/ha, ZEAMX, effect in comparison to untreated controls): 0%; Post-emergence action against ZEAMX in % (Zea mays (ZEAMX) [26]): 10%; Pre-emergence action against DIGSA in % [17, 28]: 100%; Pre-emergence action against DIGSA in % ([17]; dosage 320 g/ha): 100%; Pre-emergence action against AMARE in % ([18]; 80 g/ha): 100% |
